Tests used:
[1] = Inhibition of bacterial MraY; design: species or system Bacteria
[2] = molecular target: T1, Phospho-N-acetylmuramoyl-pentapeptide-transferase (Staphylococcus aureus, UniProt P0C1R8); experiment: Inhibition of Staphylococcus aureus MraY using UDP-MurNAc-dansylpentapeptide as substrate incubated for 3 hrs by fluorescence based microplate reader analysis
T1 sequence (P0C1R8 whole entry): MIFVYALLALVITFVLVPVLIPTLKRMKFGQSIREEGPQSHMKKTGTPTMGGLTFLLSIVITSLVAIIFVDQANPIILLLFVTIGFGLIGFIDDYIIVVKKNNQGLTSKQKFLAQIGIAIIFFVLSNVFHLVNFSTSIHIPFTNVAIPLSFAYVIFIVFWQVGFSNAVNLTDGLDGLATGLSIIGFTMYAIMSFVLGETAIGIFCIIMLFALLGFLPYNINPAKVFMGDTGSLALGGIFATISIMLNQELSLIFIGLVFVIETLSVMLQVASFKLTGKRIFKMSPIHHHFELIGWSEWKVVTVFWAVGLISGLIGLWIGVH

[3] = molecular target: T2, Phospho-N-acetylmuramoyl-pentapeptide-transferase (Bacillus subtilis (strain 168), UniProt Q03521); experiment: Inhibition of Bacillus subtilis MraY
T2 sequence (Q03521 whole entry): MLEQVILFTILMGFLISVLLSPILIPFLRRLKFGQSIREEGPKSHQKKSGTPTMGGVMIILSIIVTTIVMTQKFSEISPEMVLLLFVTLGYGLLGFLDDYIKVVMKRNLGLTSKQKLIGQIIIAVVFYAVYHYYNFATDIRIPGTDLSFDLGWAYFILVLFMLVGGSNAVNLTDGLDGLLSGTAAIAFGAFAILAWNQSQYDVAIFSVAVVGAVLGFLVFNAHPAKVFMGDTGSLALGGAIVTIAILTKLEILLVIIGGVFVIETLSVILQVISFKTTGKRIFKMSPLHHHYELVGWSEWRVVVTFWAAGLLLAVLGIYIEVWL

SMILES | IC50 [2] | other results
CCCCCCCCCCCCCCCCC[C@H]1CN[C@@H]([C@H](O[C@@H]2O[C@H](CN)[C@@H](O)[C@H]2O)[C@H]2O[C@@H](n3ccc(=O)[nH]c3=O)[C@H](O)[C@@H]2O)C(=O)N(C)[C@@H]1C(=O)O |  | IC50 [1]: 0.0038 µM
C#C[C@H](O[C@@H]1O[C@H](CN)[C@@H](O)[C@H]1O)[C@H]1O[C@@H](n2ccc(=O)[nH]c2=O)[C@H](O)[C@@H]1O | 90 µM | 
NC[C@H]1O[C@@H](O[C@@H](C#Cc2cccc(NS(=O)(=O)c3ccccc3)c2)[C@H]2O[C@@H](n3ccc(=O)[nH]c3=O)[C@H](O)[C@@H]2O)[C@H](O)[C@@H]1O | 0.95 µM | 
NC[C@H]1O[C@@H](O[C@@H](CCc2ccccc2)[C@H]2O[C@@H](n3ccc(=O)[nH]c3=O)[C@H](O)[C@@H]2O)[C@H](O)[C@@H]1O | 32 µM | 
CCCCCCCCCCCCCCCC[C@H](NC(C)=O)C(=O)NCCCN[C@H](C(=O)O)[C@H](O[C@@H]1O[C@H](CN)[C@@H](O)[C@H]1O)[C@H]1O[C@@H](n2ccc(=O)[nH]c2=O)[C@H](O)[C@@H]1O |  | IC50 [1]: 0.0027 µM
NC[C@H]1O[C@@H](O[C@@H](C#Cc2ccc(C(=O)Nc3ccccc3)cc2)[C@H]2O[C@@H](n3ccc(=O)[nH]c3=O)[C@H](O)[C@@H]2O)[C@H](O)[C@@H]1O | 0.9 µM | 
NC[C@H]1O[C@@H](O[C@@H](c2cn(Cc3ccc(Cc4ccc(C(=O)c5ccccc5)cc4)cc3)nn2)[C@H]2O[C@@H](n3ccc(=O)[nH]c3=O)[C@H](O)[C@@H]2O)[C@H](O)[C@@H]1O |  | IC50 [3]: 50 µM
NC[C@H]1O[C@@H](O[C@@H](C#Cc2ccc(-c3ccccc3)cc2)[C@H]2O[C@@H](n3ccc(=O)[nH]c3=O)[C@H](O)[C@@H]2O)[C@H](O)[C@@H]1O | 0.59 µM | 
NC[C@H]1O[C@@H](O[C@@H](C#Cc2ccc(NS(=O)(=O)c3ccccc3)cc2)[C@H]2O[C@@H](n3ccc(=O)[nH]c3=O)[C@H](O)[C@@H]2O)[C@H](O)[C@@H]1O | 1 µM | 
CC(C)C[C@H](NC(=O)[C@@H](NC(=O)N[C@H](C(=O)O)C(C)C)[C@@H]1CCNC(=N)N1)C(=O)NCCCN[C@H](C(=O)O)[C@H](O[C@@H]1O[C@H](CN)[C@@H](O)[C@H]1O)[C@H]1O[C@@H](n2ccc(=O)[nH]c2=O)[C@H](O)[C@@H]1O [MURAMYCIN D2] |  | IC50 [1]: 0.025 µM

The next lines start with results.

IC50 [2] | SMILES | other results
2 µM | NC[C@H]1O[C@@H](O[C@@H](C#Cc2ccccc2)[C@H]2O[C@@H](n3ccc(=O)[nH]c3=O)[C@H](O)[C@@H]2O)[C@H](O)[C@@H]1O | 
4.4 µM | NC[C@H]1O[C@@H](O[C@@H](C#Cc2ccc(C(=O)O)cc2)[C@H]2O[C@@H](n3ccc(=O)[nH]c3=O)[C@H](O)[C@@H]2O)[C@H](O)[C@@H]1O | 
1.5 µM | NC[C@H]1O[C@@H](O[C@@H](C#Cc2cccc(C(=O)O)c2)[C@H]2O[C@@H](n3ccc(=O)[nH]c3=O)[C@H](O)[C@@H]2O)[C@H](O)[C@@H]1O | 
1.1 µM | NC[C@H]1O[C@@H](O[C@@H](C#Cc2cccc(C(=O)Nc3ccccc3)c2)[C@H]2O[C@@H](n3ccc(=O)[nH]c3=O)[C@H](O)[C@@H]2O)[C@H](O)[C@@H]1O | 
2.1 µM | NC[C@H]1O[C@@H](O[C@@H](C#Cc2ccccc2N)[C@H]2O[C@@H](n3ccc(=O)[nH]c3=O)[C@H](O)[C@@H]2O)[C@H](O)[C@@H]1O | 
2 µM | Cc1ccccc1C#C[C@H](O[C@@H]1O[C@H](CN)[C@@H](O)[C@H]1O)[C@H]1O[C@@H](n2ccc(=O)[nH]c2=O)[C@H](O)[C@@H]1O | 
0.65 µM | NC[C@H]1O[C@@H](O[C@@H](C#Cc2cccc(-c3ccccc3)c2)[C@H]2O[C@@H](n3ccc(=O)[nH]c3=O)[C@H](O)[C@@H]2O)[C@H](O)[C@@H]1O | 
6.7 µM | NC[C@H]1O[C@@H](O[C@@H](C#Cc2cccc(NC(=O)c3ccccc3)c2)[C@H]2O[C@@H](n3ccc(=O)[nH]c3=O)[C@H](O)[C@@H]2O)[C@H](O)[C@@H]1O | 
1.4 µM | NC[C@H]1O[C@@H](O[C@@H](C#Cc2ccc(NC(=O)c3ccccc3)cc2)[C@H]2O[C@@H](n3ccc(=O)[nH]c3=O)[C@H](O)[C@@H]2O)[C@H](O)[C@@H]1O | 
0.3 µM | NC[C@H]1O[C@@H](O[C@@H](C#Cc2ccc(N)cc2)[C@H]2O[C@@H](n3ccc(=O)[nH]c3=O)[C@H](O)[C@@H]2O)[C@H](O)[C@@H]1O | 
1.4 µM | Cc1cccc(C#C[C@H](O[C@@H]2O[C@H](CN)[C@@H](O)[C@H]2O)[C@H]2O[C@@H](n3ccc(=O)[nH]c3=O)[C@H](O)[C@@H]2O)c1 | 
5.7 µM | NC[C@H]1O[C@@H](O[C@@H](C#Cc2ccccc2C(=O)O)[C@H]2O[C@@H](n3ccc(=O)[nH]c3=O)[C@H](O)[C@@H]2O)[C@H](O)[C@@H]1O | 
1.3 µM | Cc1ccc(C#C[C@H](O[C@@H]2O[C@H](CN)[C@@H](O)[C@H]2O)[C@H]2O[C@@H](n3ccc(=O)[nH]c3=O)[C@H](O)[C@@H]2O)cc1 | 
1.8 µM | NC[C@H]1O[C@@H](O[C@@H](C#Cc2cccc(N)c2)[C@H]2O[C@@H](n3ccc(=O)[nH]c3=O)[C@H](O)[C@@H]2O)[C@H](O)[C@@H]1O | 

— ChEMBL document CHEMBL5260855, “Design, synthesis and biological evaluation of simplified analogues of MraY inhibitory natural product with rigid scaffold” (Bioorg Med Chem, 2021)
